Marks after values point to notes of the source that are not given here. Non-standard residues stand in square brackets, D forms with d. Residues, ends and D or L forms follow the SMILES beside them. No end group written: not given here. *: point of attachment. Tle = CC(C)(C)[C@H](N)C(=O)O; NMeA = CN[C@@H](C)C(=O)O; Boc = CC(C)(C)OC(=O)*; Aib = CC(C)(N)C(=O)O; OtBu = CC(C)(C)O*; tBu = CC(C)(C)*
What follows are molecules tested on peptide-producing enzyme (Mono S fraction) from Empedobacter brevis strain FERM BP-8113 (assay: Enzyme substrate specificity (1)-(10), (13), (14)). Settings: L or D amino acid methyl ester hydrochloride 100 mM, L or D amino acid 150 mM, pH 9.0, 25° C., 3 hours.
Format: biochemical
Description: Ester specificity was examined in the case of using L-amino acid ester for the carboxy component. […] The amounts of L-Ala-L-Gln produced in this reaction are shown in Table 4 (HCl represents hydrochloride in Table 4). Peptide production was examined in the case of using L-alanine methyl ester for the carboxy component and using various L-amino acids for the amine component. […] (The “+” mark indicates those peptides for which production was confirmed but which were unable to be quantified due to the absence of a standard, while “tr” indicates a trace amount.) Peptide production was examined in the case of using various types of L-amino acid methyl esters for the carboxy component and using L-glutamine for the amine component. […] Peptide production was examined in the case of using various L-amino acid methyl esters for the carboxy component and various L-amino acids for the amine component. […] (The “tr” indicates a trace amount.) Furthermore, Tween-80 was added to the reaction system to a final concentration of 0.1% in the case of using L-Trp-OMe. (The “+” mark indicates those peptides for which production was confirmed but which were unable to be quantified due to the absence of a standard.) […] (The “tr” indicates a trace amount.) Peptide production was examined using various L-amino acid amides for the carboxy component, and various L-amino acids for the amine component. […] Peptide production was examined in the case of using various L-alanine methyl esters for the carboxy component and C-protected L-amino acids for the amine component. […] Peptide production was examined in the case of using various amino acid methyl esters for the carboxy component and methylamine for the amine component. […] Peptide production was examined in the case of using β-amino acid ester for the carboxy component or β-amino acid for the amine component. […] (The “tr” indicates a trace amount.) Oligopeptide production was examined in the case of using L-amino acid ester for the carboxy component and peptide for the amine component. […] Substrate specificity was additionally assessed using the same enzyme fraction as that used in Example 5. […] (A “+” mark indicates those for which production was confirmed but which were unable to be quantified due to the absence of a standard, while “tr” indicates a trace amount). Substrate specificity with respect to oligopeptide production was assessed using the same enzyme fraction as Example 26. […] (A “+” mark indicates those for which production was confirmed but which were unable to be quantified due to the absence of a standard, while “tr” indicates a trace amount). It should be noted that hydrochlorides were used for all of the carboxy components.
`C[C@@H](N)C(=O)N[C@@H](CCC(N)=O)C(=O)O` [D-Ala-L-Gln] (H-[dA]-Gln-OH) was tested, and the “Produced peptide” value was 69.3 mM. `CSCC[C@@H](N)C(=O)N[C@H](CO)C(=O)O` [D-Met-D-Ser] (H-[dM]-[dS]-OH) was tested, and the “Produced peptide” value was 2.7 mM. For `CSCC[C@@H](N)C(=O)N[C@@H](CO)C(=O)O` [D-Met-L-Ser] (H-[dM]-Ser-OH), the “Produced peptide” value was 5.1 mM. In the case of `N[C@H](CO)C(=O)N[C@H](CO)C(=O)O` [D-Ser-D-Ser] (H-[dS]-[dS]-OH), the “Produced peptide” value is reported as 2.5 mM. `N[C@H](CO)C(=O)N[C@@H](CO)C(=O)O` [D-Ser-L-Ser] (H-[dS]-Ser-OH) was tested, and the “Produced peptide” value was 3.3 mM. With `C[C@H](O)[C@@H](N)C(=O)N[C@H](CO)C(=O)O` [D-Thr-D-Ser] (H-[dT]-[dS]-OH) the “Produced peptide” value was 1.1 mM. With `C[C@H](O)[C@@H](N)C(=O)N[C@@H](CO)C(=O)O` [D-Thr-L-Ser] (H-[dT]-Ser-OH) the “Produced peptide” value was 1.0 mM. With `CC(C)[C@@H](N)C(=O)N[C@H](CO)C(=O)O` [D-Val-D-Ser] (H-[dV]-[dS]-OH) the “Produced peptide” value was 0.5 mM. For `CC(C)[C@@H](N)C(=O)N[C@@H](CO)C(=O)O` [D-Val-L-Ser] (H-[dV]-Ser-OH), the “Produced peptide” value was 0.6 mM. `C[C@H](N)C(=O)N[C@H](CCC(N)=O)C(=O)O` [L-Ala-D-Gln] (H-Ala-[dQ]-OH) was tested, and the “Produced peptide” value was 0.3 mM. For `CSCC[C@H](N)C(=O)N[C@H](CO)C(=O)O` [L-Met-D-Ser] (H-Met-[dS]-OH), the “Produced peptide” value was 1.9 mM. In the case of `N[C@@H](CO)C(=O)N[C@H](CO)C(=O)O` [L-Ser-D-Ser] (H-Ser-[dS]-OH), the “Produced peptide” value is reported as 16.2 mM. In the case of `C[C@@H](O)[C@H](N)C(=O)N[C@H](CO)C(=O)O` [L-Thr-D-Ser] (H-Thr-[dS]-OH), the “Produced peptide” value is reported as 6.9 mM. For `CC(C)[C@H](N)C(=O)N[C@H](CO)C(=O)O` [L-Val-D-Ser] (H-Val-[dS]-OH), the “Produced peptide” value was 1.4 mM.

Same assay, conditions: L-amino acid amide hydrochloride 100 mM as carboxy component, L-amino acid 150 mM, pH 9.0, 25° C., 3 hours
With `N[C@@H](Cc1ccccc1)C(=O)N[C@@H](CO)C(=O)O` [L-Phe-L-Ser] (H-Phe-Ser-OH) the “Produced peptide” value was 0.6 mM.

Same assay, conditions: L-amino acid ester 100 mM, amino acid or peptide amine component 150 mM, pH 9.0, 25° C., 3 hours
With Gly-Gly-L-Gln the “Produced peptide” value was 7.2 mM. Gly-Gly-L-Tyr-L-Ala was tested, and the “Produced peptide” value was 44.2 mM.

Same assay, conditions: L-amino acid methyl ester hydrochloride 100 mM, L-amino acid 150 mM, pH 9.0, 25° C., 3 hours
For `NCC(=O)N[C@@H](CS)C(=O)O` [Gly-L-CySH] (H-Gly-Cys-OH), the “Produced peptide” value was 45.6 mM. In the case of `CSCC[C@H](NC(=O)[C@@H](N)Cc1cnc[nH]1)C(=O)O` [L-His-L-Met] (H-His-Met-OH), the “Produced peptide” value is reported as 6.5 mM. For `CSCC[C@H](NC(=O)[C@@H](N)CC(C)C)C(=O)O` [L-Leu-L-Met] (H-Leu-Met-OH), the “Produced peptide” value was 12.2 mM. With `CSCC[C@H](NC(=O)[C@@H](N)CCCCN)C(=O)O` [L-Lys-L-Met] the “Produced peptide” value was 6.8 mM. For `C[C@@H](O)[C@H](N)C(=O)N[C@@H](CO)C(=O)O` [L-Thr-L-Ser] (H-Thr-Ser-OH), the “Produced peptide” value was 58.2 mM. In the case of `CSCC[C@H](NC(=O)[C@@H](N)Cc1c[nH]c2ccccc12)C(=O)O` [L-Trp-L-Met] (H-Trp-Met-OH), the “Produced peptide” value is reported as 4.1 mM. With `NC(=O)C[C@H](N)C(=O)N[C@@H](CCC(=O)O)C(=O)O` [LAsn-L-Glu] (H-Asn-Glu-OH) the “Produced peptide” value was 10.2 mM.

Same assay, conditions: carboxy component 10 mM, amine component 15 mM, pH 9.0, 25° C., 3 hours
With L-Ala-L-Ala-L-Ala-L-Ala-L-Ala-L-Ala the “Produced peptide (mM)” value was 1.4* mM.

Same assay, conditions: carboxy component 40 mM, amine component 40 mM, 0.1 unit enzyme, 25° C., reaction time 3 hr
With `C[C@H](N)C(=O)N[C@@H](Cc1ccc(Cl)cc1)C(=O)O` [H-Ala-Cl-F-Phe-OH] the “Produced peptide” value was 20.8 mM. For `C[C@H](N)C(=O)N[C@@H](Cc1ccc([N+](=O)[O-])cc1)C(=O)O` [H-Ala-p-NO2-Phe-OH], the “Produced peptide” value was 27.5 mM. In the case of `NC(=O)CC[C@H](NC(=O)[C@@H](N)Cc1ccc([N+](=O)[O-])cc1)C(=O)O` [H-p-NO2-Phe-H-Gln-OH], the “Produced peptide” value is reported as 1.1 mM.

Same assay, conditions: carboxy component 50 mM, amine component 50 mM, 0.1 unit enzyme, 25° C., reaction time 3 hr
For `C[C@H](N)C(=O)N[C@@H](Cc1ccc(F)cc1)C(=O)O` [H-Ala-p-F-Phe-OH], the “Produced peptide” value was 21.9 mM.

Same assay, conditions: carboxy component 100 mM, amine component 150 mM, 0.1 unit enzyme, 25° C., reaction time 2 hr
For `C[C@H](N)C(=O)N[C@@H](CC(=O)OC(C)(C)C)C(=O)O` [H-Ala-Asp(OtBu)-OH] (H-Ala-Asp(OtBu)-OH), the “Produced peptide” value was 62.6 mM. `C[C@H](N)C(=O)N[C@@H](CCCCNC(=O)OC(C)(C)C)C(=O)O` [H-Ala-Lys(Boc)-OH] (H-Ala-Lys(Boc)-OH) was tested, and the “Produced peptide” value was 51.0 mM. For `C[C@H](N)C(=O)N[C@@H](COC(C)(C)C)C(=O)O` [H-Ala-Ser(tBu)-OH] (H-Ala-Ser(tBu)-OH), the “Produced peptide” value was 48.8 mM. `CC(C)(C)OC(=O)C[C@H](N)C(=O)N[C@@H](CCC(N)=O)C(=O)O` [H-Asp (OtBu)-Gln-OH] (H-Asp(OtBu)-Gln-OH) was tested, and the “Produced peptide” value was 0.9 mM.

Same assay, conditions: carboxy component 100 mM, amine component 150 mM, 0.1 unit enzyme, 25° C., reaction time 3 hr
`CC(C)(N)C(=O)N[C@@H](CCC(N)=O)C(=O)O` [H-Aib-H-Gln-OH] (H-[Aib]-Gln-OH) was tested, and the “Produced peptide” value was 18.8 mM. `CC(C)(N)C(=O)N[C@@H](Cc1ccccc1)C(=O)O` [H-Aib-Phe-OH] (H-[Aib]-Phe-OH) was tested, and the “Produced peptide” value was 17.2 mM. For `C[C@H](N)C(=O)N[C@H](C(=O)O)C(C)(C)C` [H-Ala-t-Leu-OH] (H-Ala-[Tle]-OH), the “Produced peptide” value was 0.4 mM. With `CN[C@@H](C)C(=O)N[C@@H](CCC(N)=O)C(=O)O` [H-N-Me-Ala-H-Gln-OH] (H-[NMeA]-Gln-OH) the “Produced peptide” value was 0.5 mM.

Same assay, conditions: carboxy component (label) 100 mM, 200 mM L-glutamine, pH 9.0, 25° C., 2 hours
`CCOC(=O)[C@H](C)N.Cl` [L-Alanine ethyl ester.HCl] was tested, and the “L-Ala-L-Gln produced” value was 91.5 mM. In the case of `CC(C)OC(=O)[C@H](C)N.Cl` [L-Alanine isopropyl ester.HCl], the “L-Ala-L-Gln produced” value is reported as 78.9 mM. `COC(=O)[C@H](C)N.Cl` [L-Alanine methyl ester.HCl, L-alanine methyl ester hydrochloride] was tested, and the “L-Ala-L-Gln produced” value was 84.3 mM. With `C[C@H](N)C(=O)OC(C)(C)C.Cl` [L-Alanine-t-butyl ester.HCl] the “L-Ala-L-Gln produced” value was 7.5 mM.

Same assay, conditions: oligopeptide production, amount of enzyme 0.1 units, pH 9.0, 25° C., 3 hours
With [dA]-Gly-Phe the “Produced peptide (mM)” value was “Tr”.

Same assay, conditions: oligopeptide production, amount of enzyme 1.0 units, pH 9.0, 25° C., 3 hours
With Gly-Phe-Met the “Produced peptide” value was 13.3 mM. With L-Tyr-Gly-Gly-L-Phe-L-Met the “Produced peptide” value was 2.7 mM.

Same assay, conditions: β-amino acid ester as carboxy component or β-amino acid as amine component; 100 mM / 150 mM, pH 9.0, 25° C., 3 hours
With `CC(N)C(=O)NCCC(=O)O` (stereo not drawn) [Ala-β-Ala] the “Produced peptide” value was 7.7 mM. With `CC(N)C(=O)NC(CC(=O)O)c1ccccc1` (stereo not drawn) [Ala-β-Phe] the “Produced peptide” value was 1.4 mM. With `NCC(=O)NCCC(=O)O` [Gly-β-Ala] the “Produced peptide” value was 2.2 mM. With `NCC(=O)NC(CC(=O)O)c1ccccc1` (stereo not drawn) [Gly-β-Phe] the “Produced peptide” value was 0.4 mM. `C[C@@H](O)[C@H](N)C(=O)NCCC(=O)O` [Thr-β-Ala] was tested, and the “Produced peptide” value was 3.2 mM. For `C[C@@H](O)[C@H](N)C(=O)NC(CC(=O)O)c1ccccc1` (stereo partly drawn) [Thr-β-Phe], the “Produced peptide” value was 1.4 mM. `NCCC(=O)N[C@@H](CCC(N)=O)C(=O)O` [β-Ala-L-Gln] was tested, and the “Produced peptide” value was 0.6 mM. For `NCCC(=O)NC(CO)C(=O)O` [β-Ala-L-Ser], the “Produced peptide” value was 3.2 mM. In the case of `NCCC(=O)NCCC(=O)O` [β-Ala-β-Ala], the “Produced peptide” value is reported as 0.2 mM.

From patent US20040253665A1, “Novel peptide-producing enzyme, microbe producing the enzyme and method for dipeptide synthesis using them” (AJINOMOTO CO., INC., priority 2002, published 2004)
